pIC50: −log10 of the molar value.
Columns and labels:
[1] = target: wild type FGFR-4 (Homo sapiens (Human), UniProt P22455); assay: FGFR-4 wild type assay at Km (Caliper electrophoretic mobility shift); assay type: biochemical; conditions: wild type FGFR-4, 400 uM ATP, 25 C, 90 minutes; read-out: FGFR4 IC50
Method: In order to assess the activity of chemical compounds against the relevant kinase of interest, the Caliper LifeSciences electrophoretic mobility shift technology platform is utilized. Fluorescently labeled substrate peptide is incubated in the presence of dosed levels of compounds, a set concentration of kinase and of ATP, so that a reflective proportion of the peptide is phosphorylated. At the end of the reaction, the mix of phosphorylated (product) and non-phosphorylated (substrate) peptides are passed through the microfluidic system of the Caliper LabChip® EZ Reader II, under an applied potential difference. The presence of the phosphate group on the product peptide provides a difference in mass and charge between the product peptide and the substrate peptide, resulting in a separation of the substrate and product pools in the sample. As the pools pass the LEDS within the instrument, these pools are detected and resolved as separate peaks. The ratio between these peaks therefore reflects the activity of the chemical matter at that concentration in that well, under those conditions.
The reaction was stopped by the addition of 70 ul of Stop buffer (100 mM HEPES pH 7.5, 0.015% Brij 35, 35 mM EDTA and 0.2% of Coating Reagent 3 (Caliper Lifesciences)). The plate was then read on a Caliper LabChip® EZ Reader II (protocol settings: −1.9 psi, upstream voltage −700, downstream Voltage −3000, post sample sip 35S).

[2] = tested on: pMAPK (Thr202/Tyr204) in MDA-MB453 cells; assay: Detection of pMAPK (Thr202/Tyr204) using Alpha Elisa (pERK alphaLISA) in MDA-MB453 cells; assay type: cell-based; conditions: Homo sapiens, MDA-MB-453, 1 hr incubation with compound
Method: MDA-MB453 cells were plated in 96-well cell culture plates at a density of 1×10^5 cells. Cells were allowed to attach, and growth media was replaced with serum free media. Compounds were added at the indicated concentrations. Following 1 hr incubation in the presence of compound, cells were collected. Cell lysates were prepared and processed according to manufacturer instruction (AlphaScreen® SureFire™ Phospho-ERK 1/2 Kit (Perkin Elmer).

Sequence of wild type FGFR-4 (P22455 22-802): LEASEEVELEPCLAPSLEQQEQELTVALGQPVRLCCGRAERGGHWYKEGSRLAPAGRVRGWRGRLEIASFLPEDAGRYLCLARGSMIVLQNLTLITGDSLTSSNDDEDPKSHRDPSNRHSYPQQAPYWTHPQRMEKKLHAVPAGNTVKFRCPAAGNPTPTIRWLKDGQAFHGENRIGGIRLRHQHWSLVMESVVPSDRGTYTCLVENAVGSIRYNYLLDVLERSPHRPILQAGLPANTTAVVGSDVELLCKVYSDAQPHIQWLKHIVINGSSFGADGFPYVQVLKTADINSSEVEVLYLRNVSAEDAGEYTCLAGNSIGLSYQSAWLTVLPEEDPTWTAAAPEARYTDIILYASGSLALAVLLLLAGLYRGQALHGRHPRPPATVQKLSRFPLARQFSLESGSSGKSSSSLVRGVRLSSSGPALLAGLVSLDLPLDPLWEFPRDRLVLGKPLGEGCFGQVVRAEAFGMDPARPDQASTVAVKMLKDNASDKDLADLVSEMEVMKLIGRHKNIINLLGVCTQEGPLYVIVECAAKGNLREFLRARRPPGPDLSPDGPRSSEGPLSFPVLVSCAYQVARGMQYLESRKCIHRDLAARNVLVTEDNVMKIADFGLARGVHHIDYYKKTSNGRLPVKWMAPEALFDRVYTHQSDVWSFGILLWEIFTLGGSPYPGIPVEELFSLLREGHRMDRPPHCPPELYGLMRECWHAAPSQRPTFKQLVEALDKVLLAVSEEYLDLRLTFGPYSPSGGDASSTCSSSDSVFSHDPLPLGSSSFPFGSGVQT

Structure (SMILES) | pIC50 [1] | pIC50 [2]
C=CC(=O)Nc1ccccc1-c1cc2ccc(-c3c(Cl)c(OC)cc(OC)c3Cl)cc2cn1 [Compound 1] | 6.00 to 7.00 | –
C=CC(=O)Nc1ccccc1-c1ncc2cc(-c3c(Cl)c(OC)cc(OC)c3Cl)ccc2n1 [Compound 2] | 6.00 to 7.00 | –
C=CC(=O)Nc1cccc(-c2ncc3cc(-c4c(Cl)c(OC)cc(OC)c4Cl)ccc3n2)c1 [Compound 3] | < 6.00 | –
C=CC(=O)Nc1ccc(F)c(-c2cc3c(cn2)cc(-c2cc(OC)cc(OC)c2)c(=O)n3C(C)C)c1 [Compound 4] | 7.00 to 8.00 | 6.00 to 7.00
C=CC(=O)Nc1ccc(C)c(-c2ncc3cc(-c4c(Cl)c(OC)cc(OC)c4Cl)ccc3n2)c1 [Compound 5] | < 6.00 | –
C=CC(=O)N(C)c1cccc(-c2ncc3cc(-c4c(Cl)c(OC)cc(OC)c4Cl)ccc3n2)c1 [Compound 6] | < 6.00 | –
C=CC(=O)Nc1cccc(F)c1-c1ncc2cc(-c3c(Cl)c(OC)cc(OC)c3Cl)ccc2n1 [Compound 7] | – | 6.00 to 7.00
C=CC(=O)Nc1ccccc1-c1cc2c(cn1)cc(-c1cc(C(=O)NOC)ccc1Cl)c(=O)n2CC [Compound 9] | > 8.00 | 7.00 to 8.00
C=CC(=O)Nc1ccc(F)c(-c2cc3c(cn2)cc(-c2cc(OC)cc(OC)c2F)c(=O)n3C(C)C)c1 [Compound 10] | > 8.00 | 7.00 to 8.00
C=CC(=O)N1CCc2ccc(-c3ncc4cc(-c5c(Cl)c(OC)cc(OC)c5Cl)ccc4n3)cc21 [Compound 11] | 7.00 to 8.00 | –
C=CC(=O)Nc1ccc(F)c(-c2cc3c(cn2)cc(-c2cc(OC)cc(OC)c2Cl)c(=O)n3CC)c1 [Compound 12] | > 8.00 | > 8.00
C=CC(=O)Nc1cccc(-c2ncc3cc(-c4c(Cl)c(OC)cc(OC)c4Cl)cc(OC)c3n2)c1 [Compound 13] | 6.00 to 7.00 | –
C=CC(=O)Nc1ccccc1-c1ncc2cc(-c3c(Cl)c(OC)cc(OC)c3Cl)c(OC)cc2n1 [Compound 15] | 6.00 to 7.00 | –
C=CC(=O)N1CCOc2ccc(-c3ncc4cc(-c5c(Cl)c(OC)cc(OC)c5Cl)ccc4n3)cc21 [Compound 16] | 7.00 to 8.00 | –
C=CC(=O)Nc1ccc(F)c(-c2cc3c(cn2)cc(-c2c(F)c(OC)cc(OC)c2F)c(=O)n3C(C)C)c1 [Compound 17] | > 8.00 | > 8.00
C=CC(=O)N1CCc2cc(F)c(-c3ncc4cc(-c5c(Cl)c(OC)cc(OC)c5Cl)ccc4n3)cc21 [Compound 18] | > 8.00 | 7.00 to 8.00
C=CC(=O)Nc1ccccc1-c1cc2c(cn1)cc(-c1c(Cl)c(OC)cc(OC)c1Cl)c(=O)n2CC [Compound 19] | > 8.00 | 7.00 to 8.00
C=CC(=O)Nc1cccc(-c2cc3c(cn2)cc(-c2c(Cl)c(OC)cc(OC)c2Cl)c(=O)n3CC)c1 [Compound 20] | > 8.00 | > 8.00
C=CC(=O)Nc1ccc(F)c(-c2cc3c(cn2)cc(-c2c(F)c(OC)cc(OC)c2Cl)c(=O)n3CC)c1 [Compound 21] | > 8.00 | > 8.00
C=CC(=O)Nc1cccc(-c2cc3c(cn2)CN(c2c(Cl)c(OC)cc(OC)c2Cl)C(=O)N3CC)c1 [Compound 22] | 7.00 to 8.00 | 7.00 to 8.00
C=CC(=O)Nc1ccc(F)c(-c2cc3c(cn2)cc(-c2c(Cl)c(OC)cc(OC)c2Cl)c(=O)n3C)c1 [Compound 23] | > 8.00 | 7.00 to 8.00
C=CC(=O)N1CCOc2cc(C)c(-c3ncc4cc(-c5c(Cl)c(OC)cc(OC)c5Cl)ccc4n3)cc21 [Compound 24] | 7.00 to 8.00 | 7.00 to 8.00
C=CC(=O)Nc1ccccc1-c1cc2c(cn1)cc(-c1c(Cl)c(OC)cc(OC)c1Cl)c(=O)n2C(C)C [Compound 25] | > 8.00 | 7.00 to 8.00
C=CC(=O)N(C)c1ccccc1-c1cc2c(cn1)cc(-c1c(Cl)c(OC)cc(OC)c1Cl)c(=O)n2CC [Compound 26] | 7.00 to 8.00 | –
C=CC(=O)Nc1ccc(C)c(-c2cc3c(cn2)cc(-c2c(Cl)c(OC)cc(OC)c2Cl)c(=O)n3CC)c1 [Compound 27] | 7.00 to 8.00 | 7.00 to 8.00
C=CC(=O)N1CCOc2cc(F)c(-c3ncc4cc(-c5c(Cl)c(OC)cc(OC)c5Cl)ccc4n3)cc21 [Compound 28] | > 8.00 | 7.00 to 8.00

Structure (SMILES) | pIC50 [1] | pIC50 [2]
C=CC(=O)Nc1ccc(C)c(-c2cc3c(cn2)CN(c2c(Cl)c(OC)cc(OC)c2Cl)C(=O)N3CC)c1 [Compound 29] | 7.00 to 8.00 | –
C=CC(=O)Nc1ccc(F)c(-c2ncc3cc(-c4c(Cl)c(OC)cc(OC)c4Cl)c(=O)n(CC)c3n2)c1 [Compound 30] | – | > 8.00
C=CC(=O)Nc1ccc(F)c(-c2ncc3cc(-c4c(Cl)c(OC)cc(OC)c4Cl)c(=O)n(CC)c3n2)c1 [Compound 31] | 7.00 to 8.00 | –
C=CC(=O)Nc1ccc(F)c(-c2cc3c(cn2)CN(c2c(Cl)c(OC)cc(OC)c2Cl)C(=O)N3CC)c1 [Compound 32] | > 8.00 | 7.00 to 8.00
C=CC(=O)N1CCC(C)(C)c2ccc(-c3ncc4cc(-c5c(Cl)c(OC)cc(OC)c5Cl)ccc4n3)cc21 [Compound 33] | 6.00 to 7.00 | –
C=CC(=O)N1CC(C)(C)Oc2ccc(-c3ncc4cc(-c5c(Cl)c(OC)cc(OC)c5Cl)ccc4n3)cc21 [Compound 34] | 7.00 to 8.00 | 7.00 to 8.00
C=CC(=O)N1CCc2ccc(-c3ncc4cc(-c5c(Cl)c(OC)cc(OC)c5Cl)c(=O)n(CC)c4n3)cc21 [Compound 35] | – | 7.00 to 8.00
C=CC(=O)N1CCOc2ccc(-c3ncc4cc(-c5c(Cl)c(OC)cc(OC)c5Cl)c(OC)cc4n3)cc21 [Compound 36] | 7.00 to 8.00 | –
C=CC(=O)N1CCOc2ccc(-c3cc4c(cn3)cc(-c3c(Cl)c(OC)cc(OC)c3Cl)c(=O)n4C)cc21 [Compound 37] | > 8.00 | –
C=CC(=O)N1c2cc(-c3ncc4cc(-c5c(Cl)c(OC)cc(OC)c5Cl)ccc4n3)c(F)cc2OCC1C (stereo not drawn) [Compound 38] | 7.00 to 8.00 | –
C=CC(=O)Nc1ccc(F)c(-c2cc3c(cn2)cc(-c2c(Cl)c(OC)cc(OC)c2Cl)c(=O)n3C(C)C)c1 [Compound 40] | > 8.00 | > 8.00
C=CC(=O)Nc1cc(F)c(F)c(-c2cc3c(cn2)cc(-c2c(Cl)c(OC)cc(OC)c2Cl)c(=O)n3CC)c1 [Compound 41] | > 8.00 | –
C=CC(=O)N1CC(C)(C)Oc2cc(C)c(-c3ncc4cc(-c5c(Cl)c(OC)cc(OC)c5Cl)ccc4n3)cc21 [Compound 44] | 7.00 to 8.00 | –
C=CC(=O)N1CCCc2ccc(-c3cc4c(cn3)cc(-c3c(Cl)c(OC)cc(OC)c3Cl)c(=O)n4CC)cc21 [Compound 45] | > 8.00 | –
C=CC(=O)Nc1ccccc1-c1ncc2cc(-c3c(Cl)c(OC)cc(OC)c3Cl)c(=O)n(C3CCCC3)c2n1 [Compound 46] | 7.00 to 8.00 | –
C=CC(=O)N1CCOc2ccc(-c3cc4c(cn3)cc(-c3c(Cl)c(OC)cc(OC)c3Cl)c(=O)n4CC)cc21 [Compound 47] | > 8.00 | 7.00 to 8.00
C=CC(=O)N1CC(C)(C)Oc2cc(F)c(-c3ncc4cc(-c5c(Cl)c(OC)cc(OC)c5Cl)ccc4n3)cc21 [Compound 48] | 7.00 to 8.00 | –
C=CC(=O)Nc1cc(OC(C)C)cc(-c2cc3c(cn2)cc(-c2c(Cl)c(OC)cc(OC)c2Cl)c(=O)n3C)c1 [Compound 49] | 7.00 to 8.00 | –
C=CC(=O)N1CCOc2ccc(-c3cc4c(cn3)CN(c3c(Cl)c(OC)cc(OC)c3Cl)C(=O)N4CC)cc21 [Compound 50] | > 8.00 | 7.00 to 8.00
CCn1c(=O)c(-c2c(Cl)c(OC)cc(OC)c2Cl)cc2cnc(-c3cccc(NC(=O)/C=C/CN(C)C)c3)cc21 [Compound 51] | 7.00 to 8.00 | –
C=CC(=O)N1CC(C)(C)Oc2ccc(-c3cc4c(cn3)cc(-c3c(Cl)c(OC)cc(OC)c3Cl)c(=O)n4CC)cc21 [Compound 52] | – | 7.00 to 8.00
C=CC(=O)N1c2cc(-c3cc4c(cn3)cc(-c3c(Cl)c(OC)cc(OC)c3Cl)c(=O)n4CC)c(F)cc2OCC1C (stereo not drawn) [Compound 53] | > 8.00 | 7.00 to 8.00
C=CC(=O)N1CCOc2ccc(-c3cc4c(cn3)cc(-c3c(Cl)c(OC)cc(OC)c3Cl)c(=O)n4C3CCCC3)cc21 [Compound 54] | 7.00 to 8.00 | –
C=CC(=O)N1CCOc2ccc(-c3ncc4cc(-c5c(Cl)c(OC)cc(OC)c5Cl)c(=O)n(C5CCCC5)c4n3)cc21 [Compound 55] | 7.00 to 8.00 | –
C=CC(=O)N1CCOc2ccc(-c3cc4c(cn3)nc(-c3c(Cl)c(OC)cc(OC)c3Cl)c(=O)n4C3CCCC3)cc21 [Compound 56] | > 8.00 | –

Reference: patent US9695165B2, “Inhibitors of the fibroblast growth factor receptor” (BLUEPRINT MEDICINES CORPORATION, priority 2014, dated 2017)
